Source: ChEMBL document CHEMBL2440034, “Towards new C6-rigid S-DABO HIV-1 reverse transcriptase inhibitors: synthesis, biological investigation and molecular modeling studies” (Bioorg Med Chem, 2013)
pEC50, pIC50: −log10 of the molar value.

Assays:
[1] = Selectivity index, ratio of CC50 for human MT4 cells to EC50 for wild type HIV-1 3B infected in human MT4 cells; format: toxicity, cell-based; settings: read-out: Ratio CC50/EC50
[2] = Cytotoxicity against human MT4 cells assessed as cell viability after 5 days by MTT assay; format: cell-based
[3] = test system: Human immunodeficiency virus 2; test: Antiviral activity against HIV-2 ROD infected in human MT4 cells assessed as protection against virus-induced cytopathogenicity after 5 days by MTT assay; format: functional, organism-based; settings: Human immunodeficiency virus 2, ISOLATE ROD, MT4, 120 h
[4] = test system: Human immunodeficiency virus 1; test: Antiviral activity against HIV-1 RESO56 harboring RT K103N/Y181C double mutant infected in human MT4 cells assessed as protection against virus-induced cytopathogenicity after 5 days by MTT assay; format: functional, organism-based; settings: Human immunodeficiency virus 1, RESO56, MT4, 120 h
[5] = test system: Human immunodeficiency virus 1; test: Antiviral activity against wild type HIV-1 3B infected in human MT4 cells assessed as protection against virus-induced cytopathogenicity after 5 days by MTT assay; format: functional, organism-based; settings: Human immunodeficiency virus 1, 3B, MT4, 120 h
[6] = biological target: Human immunodeficiency virus type 1 reverse transcriptase (Human immunodeficiency virus 1, UniProt Q72547); test: Inhibition of recombinant wild type HIV-1 reverse transcriptase p66/p51 expressed in Escherichia coli JM109 using poly(rA)/oligo(dT)16 (1:1.2) as template/primer after 40 mins by spectrofluorometric analysis
[7] = test system: Human immunodeficiency virus 1; test: Potency index, ratio of DDI EC50 to compound EC50 for wild type HIV-1 3B infected in human MT4 cells; format: functional

SMILES	selectivity ratio [1]	CC50 at 120 h [2] [µM]	pEC50 [3]	pEC50 [4]	pEC50 [5]	pIC50 [6]	Ratio EC50 [7]
COc1ccc(CSc2nc(C(=O)c3cccc(Cl)c3)c(C)c(=O)[nH]2)cc1	21	152	< 3.82	< 3.82	5.14	–	–
COc1ccc(CSc2nc(C(=O)c3ccc(Cl)cc3)c(C)c(=O)[nH]2)cc1	–	≥ 151	< 3.82	–	≤ 3.82	–	–
COc1ccc(CSc2nc(C(=O)c3cccc(Br)c3)c(C)c(=O)[nH]2)cc1	13	201	< 3.70	< 3.70	4.80	–	–
COc1ccc(CSc2nc(C(=O)c3ccc(Br)cc3)c(C)c(=O)[nH]2)cc1	≤ 1	252	< 3.60	–	≤ 3.60	–	–
COc1ccc(CSc2nc(C(=O)c3ccccc3F)c(C)c(=O)[nH]2)cc1	124	175	< 3.76	< 3.76	5.85	5.62	–
COc1ccc(CSc2nc(C(=O)c3cccc(F)c3)c(C)c(=O)[nH]2)cc1	35	225	< 3.65	< 3.65	5.20	–	–
COc1ccc(CSc2nc(C(=O)c3ccc(F)cc3)c(C)c(=O)[nH]2)cc1	–	≥ 325	< 3.49	–	≤ 3.49	–	–
CCc1c(C(=O)c2cccc(Br)c2)nc(SCc2ccc(OC)cc2)[nH]c1=O	84	98.9	< 4.00	< 4.00	5.93	–	–
CCc1c(C(=O)c2cccc(F)c2)nc(SCc2ccc(OC)cc2)[nH]c1=O	436	167	< 3.78	< 3.78	6.42	6.72	50
COc1ccc(CSc2nc(C(=O)c3ccc(Br)cc3)c(C(C)C)c(=O)[nH]2)cc1	≤ 1	42.5	< 4.37	–	≤ 4.37	–	–
COc1ccc(CSc2nc(C(=O)c3ccccc3F)c(C(C)C)c(=O)[nH]2)cc1	145	38.2	< 4.42	< 4.42	6.57	7.14	50
COc1ccc(CSc2nc(C(=O)c3cccc(F)c3)c(C(C)C)c(=O)[nH]2)cc1	472	132	< 3.88	< 3.88	6.54	7.40	50
COc1ccc(CSc2nc(C(=O)c3ccc(F)cc3)c(C(C)C)c(=O)[nH]2)cc1	21	135	< 3.87	< 3.87	5.19	–	–
COc1ccc(CSc2nc(C(=O)c3ccc(C(C)(C)C)cc3)c(C)c(=O)[nH]2)cc1	≤ 1	126	< 3.90	–	≤ 3.90	–	–
COc1ccc(CSc2nc(C(=O)c3ccc(F)c(F)c3)c(C)c(=O)[nH]2)cc1	≤ 1	127	< 3.89	< 3.89	≤ 3.89	–	–
COc1ccc(CSc2nc(C(=O)c3cc(F)cc(F)c3)c(C)c(=O)[nH]2)cc1	32	86.9	< 4.06	< 4.06	5.57	–	–
CCc1c(C(=O)c2cc(F)cc(F)c2)nc(SCc2ccc(OC)cc2)[nH]c1=O	541	139	< 3.86	< 3.86	6.59	6.80	50
CC(C)Nc1cccnc1N1CCN(C(=O)c2cc3cc(NS(C)(=O)=O)ccc3[nH]2)CC1 [DELAVIRDINE]	379	36.2	–	< 4.44	7.02	–	–
O=c1[nH]cnc2c1ncn2[C@H]1CC[C@@H](CO)O1 [DIDANOSINE]	12	212	4.81	–	4.76	–	–
O=C1Nc2ccc(Cl)cc2[C@@](C#CC2CC2)(C(F)(F)F)O1 [EFAVIRENZ]	–	6.34	–	6.34	8.17	–	–
Cc1ccnc2c1NC(=O)c1cccnc1N2C1CC1 [NEVIRAPINE]	–	15	–	5.71	7.08	–	–
Nc1ccn([C@H]2CC[C@@H](CO)O2)c(=O)n1 [ZALCITABINE]	208	94.7	–	–	6.34	–	–
Cc1cn([C@H]2C[C@H](N=[N+]=[N-])[C@@H](CO)O2)c(=O)[nH]c1=O [ZIDOVUDINE]	15800	–	8.19	8.18	8.23	–	–
